Measurements published in US20250114313A1, “OLIGO-BENZAMIDE ANALOGS AND THEIR USE IN CANCER TREATMENT” (BOARD OF REGENTS, THE UNIVERSITY OF TEXAS SYSTEM, priority 2022, published 2025).

Tests used:
[1] = tested on: SUM-159 cells; assay: Airyscan / live cell confocal imaging of ER tubule width, SUM-159 mCherry-RAMP4; assay type: cell-based, Human
Procedure: Live cell confocal and Airyscan imaging: To visualize ER structure, stable SUM-159 cell lines expressing mCherry-RAMP4 were established. pLenti-X1-hygro-mCherry-RAMP4 was purchased from Addgene (Addgene #118391; //n2t.net/addgene:118391; RRID:Addgene_118391) (via Jacob Corn).^35 The live cell images were acquired by Confocal Zeiss LSM880 Airyscan. ER tubule width was calculated by drawing 1px-wide line scans perpendicular to the long axis of individual ER tubules. In MATLAB, the peak intensity along each line scan was determined and the distance between the half maximum intensity on either side of the peak was measured. The code for this analysis is available at: //github.com/andmoo91/HalfMaxScript.

[2] = tested on: SUM-159 cells with LIPA-KO reconstituted with LIPA constructs; assay: Response of SUM-159 LIPA KO cells reconstituted with LIPA constructs (CellTiter-Glo, western, RT-qPCR); assay type: cell-based, Human
Procedure: (§1) Cell viability assays: Cells were seeded in 96-well plates (2×10^3 cells/well) one day before the treatment. Cells were treated with varying concentrations of ERX-41 or ERX-11 analogs for 3-6 days. Then effects of ERX-41 or ERX-11 analogs on cell viability were measured in triplicate or sextuplicate with multiple biological replicates using the WST-1 (Promega), MTT as previously described^33 or CellTiter-Glo 2.0 (Promega) assays.
Lentiviral constructs cloning: LentiCRISPRv2 vector was used for CRSPR KO experiments. sgRNAs, which were chosen from human CRISPR knockout pooled library, were cloned into lentiCRISPRv2 vector^34. Human LIPA cDNA (GenBank: BC012287) or mouse LIPA cDNA (NM_021460) were clone into pWPI for over expression experiments. For TurboID experiment, the LIPA-TurboID sequence was cloned into pCW57-MCS1-2A-MCS2 vector. LentiCRISPR v2 was purchased from Addgene (Addgene #52961; //n2t.net/addgene:52961; RRID:Addgene_52961) (via Feng Zhang). pWPI was purchased from Addgene (Addgene #12254; //n2t.net/addgene:12254; RRID:Addgene_12254) (via Didier Trono). pCW57-MCS1-2A-MCS2 was purchased from Addgene (#71782) (via Adam Karpf). Human LIPA gene is referred as LIPA, while mouse LIPA gene is referred as mLIPA in this disclosure. Since LIPA overexpression was introduced in LIPA CRISPR KO background, to avoid being targeted by CRISPR-cas9, the LIPA sgRNA target sequence including PAM, tt aac cga att cct cat ggg agg, was mutated to tt aac cga att cct caC ggA agA in all of the LIPA overexpression constructs without protein coding change. In-Fusion Cloning kit (Takara) was used to generate different mutants of LIPA.
Western blotting: Whole cell lysates from breast cancer cells were prepared with 2× sample buffer (60 mM Tris-HCl, pH 6.8, 2% sodium dodecyl sulfate, 10% glycerol), and before loading mixed with loading buffer (5% 2-mercaptoethanol, 0.1% bromophenol blue) and boiled for denaturation, as previously described.^33 Proteins were separated by SDS-PAGE and subjected to Western analysis using antibodies. To detect nascent translated proteins, puromycin (final concentration 10 μg/mL) was added into cell plates 30 minutes before harvesting cells. Then samples were subjected to the Western blotting. Nascent proteins were detected by anti-puromycin antibody.
Real-time quantitative PCR (RT-qPCR): Total RNA was prepared from breast cancer cells using the RNeasy Mini Kit (Qiagen) according to the manufacturer protocols. Subsequently, total RNAs were reverse transcribed into cDNA using iScript Reverse Transcription Supermix (Bio-rad) and by using SYBR Green on an Illumina Real-Time PCR system.

[3] = tested on: Sum159 cells; assay: DIA-MS of whole cell lysates; assay type: cell-based, Human; conditions: 500 nM, 6 h
Procedure: Mass spectrometry based DIA analyses of whole cell lysates: Sum159 cells were treated with vehicle or ERX-41 (500 nM). After 6 h of treatment, cells were pelleted and snap-frozen and then lysed in buffer containing 5% SDS/50 mM triethylammonium bicarbonate (TEAB) in the presence of protease and phosphatase inhibitors (Halt; Thermo Scientific) and nuclease (Pierce™ Universal Nuclease for Cell Lysis; Thermo Scientific). Aliquots corresponding to 100 μg protein (EZQ™ Protein Quantitation Kit; Thermo Scientific) were reduced with tris (2-carboxyethyl)phosphine hydrochloride (TCEP), alkylated in the dark with iodoacetamide and applied to S-Traps (mini; Protifi) for tryptic digestion (sequencing grade; Promega) in 50 mM triethylammonium bicarbonate (TEAB). Peptides were eluted from the S-Traps with 0.2% formic acid in 50% aqueous acetonitrile and quantified using Pierce™ Quantitative Fluorometric Peptide Assay (Thermo Scientific). Data-independent acquisition mass spectrometry (DIA-MS) was conducted on an Orbitrap Fusion Lumos mass spectrometer (Thermo Scientific). On-line HPLC separation was accomplished with an RSLC NANO HPLC system (Thermo Scientific/Dionex: column, PicoFrit™ (New Objective; 75 μm i.d.) packed to 15 cm with C18 adsorbent (Vydac; 218MS 5 μm, 300 Å); mobile phase A, 0.5% acetic acid (HAc)/0.005% trifluoroacetic acid (TFA) in water, mobile phase B, 90% acetonitrile/0.5% HAc/0.005% TFA/9.5% water; gradient 3 to 42% B in 120 min; flow rate, 0.4 μl/min. A pool was made of the 6 samples (three replicates from each group), and 2-μg peptide aliquots were analyzed using gas-phase fractionation and 4-m/z windows (30k resolution for precursor and product ion scans, all in the orbitrap) to create a DIA chromatogram library^40 by searching against a Prosit-generated predicted spectral library^41 based on the UniProt_human_20191022 protein sequence database. Experimental samples were blocked by replicate and randomized within each replicate for sample preparation and analysis; injections of 2 μg of peptides and a 2-h HPLC gradient were employed. […]

[4] = tested on: ERα+ breast, glioblastoma, pancreatic and ovarian cancer cell lines; assay: CTG dose response in other cancer cell lines; assay type: cell-based
Procedure: as §1

[5] = parental SUM-159, 1 μM, from ~200 nm

In the case of `CC(C)COc1cc(C(=O)Nc2ccc(C(=O)N[C@H]3CC[C@H](C)CC3)cc2OCC(C)C)ccc1NC(=O)c1ccc([N+](=O)[O-])c(OCCO)c1` [ERX-41], the “ER tubule width, mean±S.D., airyscan” value ([1]; 1 μM, 2 h, 0 h = 260±80 nm) is reported as 660±320 nm, the “measured ER dilation following treatment” value ([1]; discussion) is reported as ~600 nm and the “ER tubule diameter, live cell confocal, 2 h” value [1, 5] is reported as ~500 nm. For the same compound, the “ER tubule diameter, live cell confocal, 4 h” value [1, 5] was ~620 nm, the “responsiveness with mouse LXXLL sequence or mouse LIPA cDNA” value ([2]; ER stress and cell death) was “restore responsiveness” and the IC50 ([2]; Homo sapiens, SUM159, SUM-159 LIPA-KO + WT-LIPA, read-out: IC50 after reconstitution of WT-LIPA (KO+WT)) was 0.25 µM. The “proliferation and ER stress with LXXLL point mutants” value ([2]; KO+L242P, KO+L239P/L242P, KO+L239P/L242P/L243P) was “inability of ERX-41 to affect proliferation or induce ER stress”, the “sensitivity after reconstitution of ΔLXXLL MT-LIPA (KO+ΔLXXLL)” value ([2]; lipase-competent mutant) was “did not restore sensitivity to ERX-41” and the “sensitivity after reconstitution of H274Y MT-LIPA (KO+H274Y)” value ([2]; lipase-incompetent mutant) was “restored sensitivity to ERX-41”. For the same compound, the “ER stress and proliferation with LIPA with added KDEL sequence” value ([2]; localized to the ER) was “restores the ability of ERX-41 to cause ER stress”, the “ER stress and proliferation with LIPA lacking the signal peptide” value ([2]; not localized to the ER) was “nor restore the ability of ERX-41 to cause ER stress” and the “number of cellular proteins with significantly affected expression” value [3] was 189. The “number of down-regulated proteins” value [3] was 153, the “number of up-regulated proteins” value [3] was 36 and the “responsiveness of other cancer cell lines in vitro” value [4] was “responsiveness to ERX-41 in vitro”.
